# Source: PMC2948534 (American journal of respiratory cell and molecular biology, 2005)
# Ends that are not written are not given here.
# What was measured:
# A549 epithelial cells = experiment: LDH release; format: cell-based, human; settings: for effect of receptor inhibitor on LL-37-induced LDH release: 1 h pretreatment (pertussis toxin 100 ng/ml; PD1683 2 μM; AG1478 1 μM), then 50 μg/ml LL-37 for 24 h, DMEM without serum
# [1] = tested on: airway epithelial or monocyte-like cell line; settings: presence of FBS; cited from earlier work
molecule,measurement,setting,value
COc1cc2ncnc(Nc3cccc(Cl)c3)c2cc1OC [AG1478],effect of receptor inhibitor on LL-37-induced LDH release,A549 epithelial cells,No decrease in LDH release
C=CC(=O)Nc1ccc2ncnc(Nc3cccc(Br)c3)c2c1 [PD1683],effect of receptor inhibitor on LL-37-induced LDH release,A549 epithelial cells,No decrease in LDH release
CRAMP,LDH release effects at >100 μg/ml in the presence of human serum,"A549 epithelial cells; 10% human serum, data not shown",similarly suppressed
same,cell death compared with LL-37,A549 epithelial cells; A549 cells,induced significantly less cell death than LL-37
same,concentrations at which no statistically significant LDH release was observed,A549 epithelial cells; data not shown,< 100 µg/mL
"indolicidin: cathelicidin peptide (ILPWKWPWWPWRR; ends and bridges not checked; UniProt P33046 131-143, looked up)",induction of cell death,[1],do not induce cell death
pertussis toxin,effect of receptor inhibitor on LL-37-induced LDH release,A549 epithelial cells,No decrease in LDH release
